Measurements published in patent EP0178388A1, “Quinolinecarboxylic acid derivatives” (KYORIN PHARMACEUTICAL CO., LTD., priority 1984, dated 1986).
≈ marks a conversion by molar mass, not a printed value. Where a name gives a salt, the structure may show the parent alone. Read-outs that look alike come from different tables or passages of the source.

Legend:
[1] = test system: Clostridium difficile I-E; experiment: In vitro antibacterial activity, MIC (standard strain); assay type: cell-based; details: Clostridioides difficile, 10^6 cells/ml
[2] = test system: K. pneumoniae KY(GN)6445; experiment: as above; assay type: cell-based; details: Klebsiella pneumoniae
[3] = test system: Klebsiella pneumoniae I-220S; experiment: as above; assay type: cell-based; details: I220S; Klebsiella pneumoniae I-220S, 10^6 cells/ml, standard strain; read-out: MIC
[4] = test system: S. agalactiae 4049; experiment: In vitro antibacterial activity, MIC (clinical isolates); assay type: cell-based; details: Streptococcus agalactiae; S. agalactiae 4049, 10^6 cells/ml, clinical isolate
[5] = test system: S. pneumoniae 2950; experiment: as above; assay type: cell-based; details: Streptococcus pneumoniae; S. pneumoniae 2950, 10^6 cells/ml, clinical isolate
[6] = test system: S. aureus IID 670 (Terajima); experiment: In vitro antibacterial activity, MIC (standard strain); assay type: cell-based; details: Staphylococcus aureus, IID670, 10^6 cells/ml
[7] = test system: C. perfringens KYA (ATCC) 13123; experiment: microbe, parasite or virus in culture; assay type: cell-based; details: Clostridium perfringens
[8] = test system: S. agalactiae 4342; experiment: In vitro antibacterial activity, MIC (clinical isolates); assay type: cell-based; details: Streptococcus agalactiae; S. agalactiae 4342, 10^6 cells/ml, clinical isolate
[9] = test system: S. faecalis 49; experiment: as above; assay type: cell-based; details: Enterococcus faecalis; S. faecalis 49, 10^6 cells/ml, clinical isolate
[10] = test system: S. pneumoniae 15; experiment: as above; assay type: cell-based; details: Streptococcus pneumoniae; S. pneumoniae 15, 10^6 cells/ml, clinical isolate
[11] = test system: Staphylococcus aureus 209 P; experiment: In vitro antibacterial activity, MIC (standard strain); assay type: cell-based; details: 10^6 cells/ml, read-out: MIC
[12] = test system: B. fragilis 0558; experiment: as above; assay type: cell-based; details: Bacteroides fragilis; B. fragilis 0558, 10^6 cells/ml, standard strain; read-out: MIC
[13] = test system: S. pneumoniae 3227; experiment: In vitro antibacterial activity, MIC (clinical isolates); assay type: cell-based; details: Streptococcus pneumoniae; S. pneumoniae 3227, 10^6 cells/ml, clinical isolate
[14] = test system: Pst. micros UPI 5464-1; experiment: In vitro antibacterial activity, MIC (standard strain); assay type: cell-based; details: Parvimonas micra, UPI54641, Pst. micros UPI 5464-1, 10^6 cells/ml
[15] = test system: Streptococcus pyogenes S-8; experiment: as above; assay type: cell-based; details: S8, Streptococcus pyogenes S-8, 10^6 cells/ml
[16] = test system: S. pneumoniae IID 552; experiment: as above; assay type: cell-based; details: Streptococcus pneumoniae, IID552, S. pneumoniae IID 552, 10^6 cells/ml
[17] = test system: S. pyogenes 4340; experiment: In vitro antibacterial activity, MIC (clinical isolates); assay type: cell-based; details: Streptococcus pyogenes; S. pyogenes 4340, 10^6 cells/ml, clinical isolate
[18] = test system: Shigella sonnei IID 969; experiment: In vitro antibacterial activity, MIC (standard strain); assay type: cell-based; details: IID969, Shigella sonnei IID 969, 10^6 cells/ml
Description: The in vitro antibacterial activity has been investigated, the minimun inhibitory concentration (MIC) was determined in accordance with the method recommended by Japan Society of Chemotherapy.

[19] = test system: Bacillus subtilis PCI 219; experiment: as above; assay type: cell-based; details: PCI219; Bacillus subtilis PCI 219, 10^6 cells/ml, standard strain; read-out: MIC
[20] = test system: Enterobacter cloacae IID 977; experiment: as above; assay type: cell-based; details: IID977, Enterobacter cloacae IID 977, 10^6 cells/ml
[21] = test system: Proteus vulgaris IFO 3167; experiment: as above; assay type: cell-based; details: Proteus vulgaris, IFO3167
[22] = test system: P. mirabilis IID 994; experiment: as above; assay type: cell-based; details: Proteus mirabilis, IID994, P. mirabilis IID 994, 10^6 cells/ml
[23] = test system: B. thetaiotaomicron (0661); experiment: as above; assay type: cell-based; details: Bacteroides thetaiotaomicron; B. thetaiotaomicron (0661), 10^6 cells/ml, standard strain; read-out: MIC
[24] = test system: Peptostreptococcus anaerobius KYA 27337; experiment: as above; assay type: cell-based; details: KYA27337, Peptostreptococcus anaerobius KYA 27337, 10^6 cells/ml
[25] = test system: Salmonella enteritidis IID 604; experiment: as above; assay type: cell-based; details: Salmonella enterica; Salmonella enteritidis IID 604, 10^6 cells/ml, standard strain; read-out: MIC
[26] = test system: Serratia marcescens IID 618; experiment: as above; assay type: cell-based; details: IID618, Serratia marcescens IID 618, 10^6 cells/ml, read-out: MIC
[27] = test system: Peptococcus magnus KY 017; experiment: as above; assay type: cell-based; details: Finegoldia magna, KY017, Peptococcus magnus KY 017, 10^6 cells/ml
[28] = test system: S. aureus Smith; experiment: MIC against the infecting strain (Table 2); assay type: cell-based; details: Staphylococcus aureus; S. aureus Smith (Table 2, part 5)
[29] = test system: S. aureus Smith; experiment: In vivo antibacterial activity against systemic infection in mice;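 further: ED50 in mg/kg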; set-up: species or system mice (ICR-S); details: Staphylococcus aureus; S. aureus Smith, mice (ICR-S), intraperitoneal infection, oral at 1 hour after infection, challenge dose 3.5 x 10^5 cfu/mouse; read-out: ED50
Description: Experiment 2 In vivo antibacterial activity against systemic infection in mice (ICR-S)
The infections were produced by intraperitoneal infection of a suspension of the bacterial culture corresponding to the germ studied. The product was administered orally at 1 hour after the infection. The 50% effective dose (ED50) which protects 50% of the animals from death caused by the infection was determined from the relation between dosage and survival rate.

[30] = test system: Propionibacterium acens 11828; experiment: In vitro antibacterial activity, MIC (standard strain); assay type: cell-based; details: Propionibacterium acens 11828, 10^6 cells/ml
[31] = test system: P. aeruginosa IID 1210; experiment: MIC against the infecting strain (Table 2); assay type: cell-based; details: Pseudomonas aeruginosa, IID1210; P. aeruginosa IID 1210 (Table 2, part 3)

CC1CN(c2c(F)cc3c(=O)c(C(=O)O)cn(C4CC4)c3c2F)CCN1 (stereo not drawn) [Example 2, l-Cyclopropyl-6,8-difluoro-l,4-dihydro-7-(3-methyl-l-piperazinyl)-4-oxoquinoline-3-carboxylic acid] showed an MIC [1] of 6.25 µg/mL (≈ 17.2 µM), an MIC [2] of 0.0125 µg/mL (≈ 0.0344 µM) and an MIC [3] of 0.05 µg/mL (≈ 0.138 µM). The MIC [4] was 1.56 µg/mL (≈ 4.29 µM), the MIC [5] was 1.56 µg/mL (≈ 4.29 µM) and the MIC [6] was 0.2 µg/mL (≈ 0.55 µM). The MIC [7] was 0.78 µg/mL (≈ 2.15 µM), the MIC [8] was 0.78 µg/mL (≈ 2.15 µM) and the MIC [9] was 0.78 µg/mL (≈ 2.15 µM). The MIC [10] was 0.78 µg/mL (≈ 2.15 µM), the MIC [11] was 0.2 µg/mL (≈ 0.55 µM) and the MIC [12] was 0.78 µg/mL (≈ 2.15 µM). The MIC [13] was 1.56 µg/mL (≈ 4.29 µM), the MIC [14] was 0.2 µg/mL (≈ 0.55 µM) and the MIC [15] was 0.78 µg/mL (≈ 2.15 µM). It also gave an MIC [16] of 0.78 µg/mL (≈ 2.15 µM), an MIC [17] of 0.78 µg/mL (≈ 2.15 µM) and an MIC [18] of 0.0125 µg/mL (≈ 0.0344 µM). The MIC [19] was 0.05 µg/mL (≈ 0.138 µM), the MIC [20] was 0.05 µg/mL (≈ 0.138 µM) and the MIC [21] was 0.0125 µg/mL (≈ 0.0344 µM). It also gave an MIC [22] of 0.025 µg/mL (≈ 0.0688 µM), an MIC [23] of 3.13 µg/mL (≈ 8.61 µM) and an MIC [24] of 1.56 µg/mL (≈ 4.29 µM). It also gave an MIC [25] of 0.025 µg/mL (≈ 0.0688 µM) and an MIC [26] of 0.05 µg/mL (≈ 0.138 µM).

CC1CN(c2c(F)cc3c(=O)c(C(=O)O)cn(C4CC4)c3c2Cl)CCN1 (stereo not drawn) [Example 5, 8-Chloro-l-cyclopropyl-6-fluoro-1,4-dihydro-7-(3-methyl-1-piperazinyl)-4-oxoquinoline-3-carboxylic acid hydrochloride] gave an MIC [1] of 3.13 µg/mL, an MIC ([2]; K. pneumoniae KY(GN)6445, 10^6 cells/ml, standard strain, read-out: MIC) of 0.025 µg/mL and an MIC [3] of 0.05 µg/mL. The MIC [4] was 0.78 µg/mL, the MIC [5] was 0.78 µg/mL and the MIC [6] was 0.1 µg/mL. For the same compound, the MIC [7] was 0.78 µg/mL, the MIC [8] was 0.78 µg/mL and the MIC [27] was 0.1 µg/mL. For the same compound, the MIC [9] was 0.78 µg/mL, the MIC [10] was 0.78 µg/mL and the MIC [11] was 0.1 µg/mL. It also gave an MIC [12] of 0.2 µg/mL, an MIC [28] of 0.1 µg/mL and an MIC [13] of 0.78 µg/mL. It also gave an MIC [14] of 0.2 µg/mL, an MIC [15] of 0.39 µg/mL and an MIC [16] of 0.78 µg/mL. For the same compound, the ED50 [29] was 0.89 mg/kg, the MIC [17] was 0.39 µg/mL and the MIC [18] was 0.0125 µg/mL. It also gave an MIC [30] of 0.39 µg/mL, an MIC [31] of 0.78 µg/mL and an MIC [19] of 0.025 µg/mL. It also gave an MIC [20] of 0.05 µg/mL, an MIC [21] of 0.0125 µg/mL and an MIC [22] of 0.025 µg/mL. The MIC [23] was 1.56 µg/mL, the MIC [24] was 0.39 µg/mL and the MIC [25] was 0.025 µg/mL. It also gave an MIC [26] of 0.05 µg/mL.
